Reference: patent publication US8623593B1, “GPR 17 agonists and screening assay” (Rheinische Friedrich-Wilhelms-Universität Bonn, priority 2011, dated 2014)

What was measured:
[1] = exposure to air and light; cited from earlier work
GPR17 [2] = target: T1, GPR17 (Homo sapiens, UniProt Q13304); details: reported in WO 2005/103291; cited from earlier work
Target sequence in this assay (Q13304 whole entry, species assumed): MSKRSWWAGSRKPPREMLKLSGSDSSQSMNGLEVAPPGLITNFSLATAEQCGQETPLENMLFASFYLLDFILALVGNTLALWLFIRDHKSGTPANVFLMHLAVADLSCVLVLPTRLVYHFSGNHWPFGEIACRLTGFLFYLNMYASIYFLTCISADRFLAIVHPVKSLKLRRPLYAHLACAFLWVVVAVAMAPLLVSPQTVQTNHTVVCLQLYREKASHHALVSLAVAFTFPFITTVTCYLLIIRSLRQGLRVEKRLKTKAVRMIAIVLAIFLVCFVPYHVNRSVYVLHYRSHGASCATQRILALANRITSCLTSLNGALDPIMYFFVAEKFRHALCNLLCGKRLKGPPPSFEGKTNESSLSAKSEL

GPR17 [3] = target: T1, GPR17; test: inhibition of forskolin-stimulated cAMP production in CHO-GPR17 cells; format: cell-based; set-up: expressed in transfected cells; host or cells: Flp-In T-REx CHO cells, expression induced with doxycycline; details: for activation of GPR17: comparison with RA-II-150, FIG. 2
Excerpt: Two signal transduction pathways that influence the activity of the adenylyl cyclase in oppositional ways can be activated upon receptor activation. Whereas the Gs pathway stimulates the adenylyl cyclase-dependent catalysation of cAMP formation, the Gi pathway inhibits it. The detection of cAMP accumulation is based on the HTRF® technology described above. In this case a monoclonal antibody specific to cAMP was the donor fluorophore while the acceptor fluorophore d2 was fused to cAMP. The analysis of the Gi pathway was based on the direct activation of the adenylyl cyclase, for example, by forskolin. Upon activation, the Gi pathway inhibits the forskolin-dependent activation of the adenylyl cyclase, leading to decreased cAMP accumulation. The inhibition of forskolin-stimulated cAMP accumulation in 1321N1 or CHO cells was performed using the HTRF® cAMP dynamic kit (Cisbio Bioassays, BP 84175, France). Cells were resuspended in assay buffer with 1 mM 3-isobutyl-1-methylxanthine (IBMX) supplemented and dispensed in 384-well microplates at a density of 50,000 cells/well in a volume of 5 μl. After preincubation in assay buffer for 30 min, the cells were stimulated by adding 5 μl of agonist in the respective concentration of forskolin. The final concentration of forskolin was dependent on the cell line which was employed in the assay. Adenylyl cyclase was stimulated with 1 μM forskolin in 1321N1-GPR17 cells and with 10 μM forskolin in CHO-GPR17 cells, followed by incubation for 30 min at room temperature. The reaction was terminated by lysis of the cells, which results from the addition of 5 μl of d2-conjugate followed by the addition of 5 μl of […] (both supplements are diluted in conjugate and lysis buffer). The assay was incubated for 60 min at room temperature and time-resolved FRET signals were measured at an excitation wavelength of 320 nm using the Mithras LB 940 multimode reader (Berthold technologies, D-75323 Bad Wildbad). The evaluation of HTRFR data was performed following the instructions of the kit manufacturer. Data analysis was based on the fluorescence ratio emitted by labeled cAMP (665 nm) over the light emitted by the europium cryptate-labelled anti-cAMP (620 nm). Levels of cAMP were normalised to the amount of cAMP elevated by 10 μM or 1 μM forskolin alone.
Target sequence in this assay (Q13304 29-367): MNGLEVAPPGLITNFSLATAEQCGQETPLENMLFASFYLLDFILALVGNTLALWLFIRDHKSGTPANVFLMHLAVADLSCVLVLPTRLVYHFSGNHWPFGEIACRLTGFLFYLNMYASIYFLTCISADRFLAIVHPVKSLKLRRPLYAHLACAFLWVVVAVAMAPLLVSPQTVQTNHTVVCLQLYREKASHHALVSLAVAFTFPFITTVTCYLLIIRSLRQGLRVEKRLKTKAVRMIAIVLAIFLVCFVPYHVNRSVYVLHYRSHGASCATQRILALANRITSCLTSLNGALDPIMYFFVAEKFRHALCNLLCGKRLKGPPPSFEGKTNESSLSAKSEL

| SMILES | chemical stability [1] | amounts needed in the assays (GPR17 [2]) | activation of GPR17 (GPR17 [3]) | less potent as compared with RA-II-150 (GPR17 [3]; FIG. 2, forskolin-stimulated cAMP production) [fold] | inhibition of forskolin stimulated adenylylcyclase activity (GPR17 [3]; GPR17 CHO cells, after 5-ALA addition) |
| --- | --- | --- | --- | --- | --- |
| NCc1[nH]cc(CCC(=O)O)c1CC(=O)O [PBG, porphobilinogen] | rapidly decomposes after exposure to air and light | mM range | failed | – | – |
| NCC(=O)CCC(=O)O [5-ALA, 5 amino levulinic acid] | – | three digit micromolar range | confirm the activation | 10.000 | GPR17-independent inhibition |
